Tests used:
[1] = tested on: Cryptosporidium parvum oocysts; conditions: pH 7; cited from earlier work
[2] = tested on: Erwinia carotovora; assay type: cell-based

| SMILES | approximate CT values for 99% inactivation [1] | mean log cfu Erwinia carotovora [2] |
| --- | --- | --- |
| [O][Cl+][O-] [chlorine dioxide] | ~78 | 0.0 log cfu |
| NCl [monochloramine] | ~7200 | – |
